Values quoted from earlier work, collected in patent publication US8614057B2, “Methods for collecting and detecting oligonucleotides” (The Invention Science Fund I, LLC, priority 2008, dated 2013).
Like-named read-outs stand apart in the source and are kept apart here.

Assays:
[1] = subcutaneous; 40, 8, and 1.6 μg injections once daily over 35 days
[2] = biological target: T1, RNAse A (Bos taurus, UniProt P61823)
T1 sequence (P61823 27-150): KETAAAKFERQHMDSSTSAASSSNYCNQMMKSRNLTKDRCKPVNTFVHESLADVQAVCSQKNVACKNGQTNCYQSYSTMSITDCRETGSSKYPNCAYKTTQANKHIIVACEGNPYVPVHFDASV

[3] = biological target: T2, RNase-4 (Homo sapiens, UniProt P34096)
T2 sequence (P34096 29-147): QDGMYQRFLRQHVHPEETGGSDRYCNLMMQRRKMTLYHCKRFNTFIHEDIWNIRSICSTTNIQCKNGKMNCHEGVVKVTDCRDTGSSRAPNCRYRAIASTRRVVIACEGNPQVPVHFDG

[4] = biological target: RNase-2 (eosinophil derived neurotoxin) (Homo sapiens, UniProt P10153)
[5] = in humans
[6] = biological target: T1, RNAse A; conditions: RNAse A catalysis

RNase-2 (eosinophil derived neurotoxin), sequence (P10153 28-161): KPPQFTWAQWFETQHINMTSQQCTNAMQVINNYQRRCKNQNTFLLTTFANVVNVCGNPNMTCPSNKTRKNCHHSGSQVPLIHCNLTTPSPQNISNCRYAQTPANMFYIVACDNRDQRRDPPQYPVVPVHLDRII

In the case of `Nc1ccc(N=Nc2ccc(-c3ccc(O)cc3)cc2)c2ccc(S(=O)(=O)O)cc12` [8-amino-5-(4′-hydroxylbiphenyl-4-ylazo)naphthalene-2-sulfonate], the “toxicity to the animals” value [1] is given as “without overt toxicity”.
In the case of `Nc1ncnc2c1ncn2C1OC(COP(=O)(O)OP(=O)(O)OC2CC(n3ccc(=O)[nH]c3=O)OC2COP(=O)(O)O)C(OP(=O)(O)O)C1O` (centres unmarked) [pdUppAp, 5′-phosphor-2′-deoxyuridine 3′-pyrophosphate, P′-P5-ester with adenosine 3′-phosphate], the Ki ([2]; pH 5.9) is listed as 27 nM, the Ki ([2]; pH 7.0) is listed as 240 nM and the “inhibition of RNase-4 activity” value [3] is listed as “inhibits the activity”. The “inhibition of RNase-2 activity” value [4] was “inhibits the activity”.
For Etanercept, the half-life [5] is listed as 70 h.
For oligo(vinylsulfonic acid), the Ki ([6]; 0 mM sodium chloride end of the range 0 to 100 mM, read-out: inhibition constant (Ki), lower end of reported range) is listed as about 0.01 nM and the Ki ([6]; 100 mM sodium chloride end of the range 0 to 100 mM, read-out: inhibition constant (Ki), upper end of reported range) is listed as about 120 nM.
